Measured values: paper PMC4145316, “Cytotoxic and Apoptosis-Inducing Activity of Triterpene Glycosides from Holothuria scabra and Cucumaria frondosa against HepG2 Cells” (Marine Drugs, 2014)

Assays:
[1] = tested on: human liver (HL-7702) cells; experiment: MTT cytotoxicity assay, normal HL-7702 cells; type: cell-based; conditions: for Ratio (HL-7702/HepG2): ratio of IC50 values against HL-7702 and HepG2 cells, selective cytotoxicity
Description: Human hepatoma (HepG2), human cervical cancer (HeLa), human leukemia (K562) and human liver (HL-7702) cells were obtained by Shanghai Institute of Biochemistry and Cell Biology, and maintained in the logarithmic phase of growth in RPMI-1640 complete medium supplemented with 2 mM L-glutamine (Sigma Chemical Co., Saint Louis, MO, USA), 100 IU/mL penicillin, 100 μg/mL streptomycin and 10% FCS at 37 °C under humidified air with 5% CO2.
The effect of compounds 1–13 on the viability of HepG2, HeLa, K562 and HL-7702 cells was determined by MIT assay as described previously. Briefly, the tumor and normal cells were seeded at 1 × 10^4 cells/well in a 96-well microtiter plate and incubated at 37 °C in a humidified atmosphere with 5% CO2. After 24 h, compounds 1–13, the positive drug CDDP or RPMI-1640 medium were added into each well, and the plates were incubated at 37 °C for the indicated time. Each concentration was repeated four wells. 50 μL of MTT solution (2 mg/mL) was added to each well 4 h before incubation end, and incubated further for 4 h. The plates were centrifuged (1400× g, 5 min) and the untransformed MTT was removed carefully by pipetting. To each well, 150 μL of DMSO was added and the absorbance was evaluated in an ELISA reader at 570 nm after 15 min. The inhibitory rates and 50% inhibitory concentrations (IC50) values towards cell viability were calculated by NDST software. Each test was performed in triplicate.

HepG2 cells = experiment: Apoptosis morphology, acridine orange and Hoechst 33342 staining; type: cell-based, human; conditions: 2.5 and 2.75 μg/mL for 8 h; AO and Hoechst 33342 staining
Description: The induction of apoptosis in cancer cells has emerged as an exciting possibility for the development of selective cancer therapies. Apoptosis is characterized by distinct morphological features such as cell shrinkage, loss of contact with neighboring cells, formation of cytoplastic vacuoles, chromatin condensation, nuclear-membrane blebbing, oligonucleosomal DNA fragmentation, and finally breakdown of the cell into smaller units (apoptotic bodies). To further characterize the anticancer activity of 1, disorganization of the nucleus with chromatin changes in HepG2 cells treated with 1 at the concentration of 2.5 and 2.75 μg/mL for 8 h was characterized using acridine orange (OA) and Hoechst 33342 staining under fluorescence microscope.
HepG2 cells were seeded at 1 × 10^5 cells/mL into 24-well plates and then incubated at 37 °C in a humidified atmosphere with 5% CO2. After 24 h, the cells were treated with 1 at the final concentrations of 0, 2.5 and 2.75 μg/mL for 8 h. After washed twice with PBS, cells were stained with 100 μL acridine orange (AO) solution (10 μg/mL) or Hoechst 33342 solution (5 μg/mL) for 30 min, and then visualized by fluorescence microscope (Olympus, Tokyo, Japan) with 488 nm stimulation and 500–520 nm emission or 350 nm stimulation and 460 nm emission, respectively.

[2] = tested on: Bcl-2 and Bax mRNA in HepG2 cells; experiment: RT-PCR, Bcl-2/Bax mRNA expression ratio; type: cell-based, human; conditions: time- and concentration-dependent
Description: The Bcl-2 family members can alter the permeability of mitochondrial membrane, and release cytochrome c or activate caspase cascade. There are two classes of regulatory proteins in the Bcl-2 family that have opposite effects on apoptosis: The anti-apoptotic members (Bcl-2 and Bcl-XL) protect cells against some forms of apoptosis, whereas the pro-apoptotic members (Bax and Bcl-xS) promote programmed cell death. As decrease of the ratio between anti-apoptotic gene Bcl-2 and pro-apoptotic gene Bax mRNA expression is widely considered as a hallmark of apoptosis, the expression level of Bcl-2 and Bax mRNA in HepG2 cells were first detected.
Figure 5 Effect of 1 on the ratio of expression level between Bcl-2 and Bax mRNA in HepG2 cells. HepG2 cells were incubated with 1 at the various concentrations for the different time. The mRNA expression levels of β-actin, Bcl-2, and Bax were detected by RT-PCR using specific primers. The values are presented as means ± SD (n = 3). […]
Total RNA was extracted with TRIzol reagent (Invitrogen, Grand Island, NY, USA) according to the manufacturer’s instructions, and reverse transcription was performed as previously. […] Semi-quantitative RT-PCR was performed using β-actin as an internal control to normalize gene expression for the PCR templates. […] The size of the amplified fragments was determined by comparison with a standard DNA marker.

[3] = tested on: Caspase-3, Caspase-8 and Caspase-9 mRNA in HepG2 cells; experiment: RT-PCR, Caspase-3, Caspase-8 and Caspase-9 mRNA expression; type: cell-based, human
Description: Caspases play an important role in cell apoptosis. Activation of caspase appears to be directly responsible for many molecular and structural changes in apoptosis. The caspase-dependent process is associated with two pathways of anticancer drug-induced apoptosis, the extrinsic (death receptor) pathway and the intrinsic (mitochondrial) pathway. The extrinsic pathway is initiated by death ligands, such as FasL, leading to cleavage of pro-Caspase-8 to its active form, which subsequently activates downstream effectors such as Caspase-3. The intrinsic pathway is characterized by mitochondria dysfunction, resulting in the reduction of mitochondrial transmembrane potentials, mitochondrial translocation of the pro-apoptotic Bax protein, cytochrome c release and activation of downstream effector caspases such as Caspase-9 [39, 40]. Caspase-3 is one of the downstream effectors of the caspase family, and is considered to involve both the mitochondrial apoptotic pathway and the death receptor pathway. […]
Figure 6 Effects of 1 on the mRNA expression level of Caspase-3, Caspase-8 and Caspase-9 in HepG2 cells. […] The mRNA expression levels of β-actin, Caspase-3, Caspase-8 and Caspase-9 were detected by RT-PCR using specific primers. […]
Total RNA was extracted with TRIzol reagent (Invitrogen, Grand Island, NY, USA) according to the manufacturer’s instructions, and reverse transcription was performed as previously. […] Semi-quantitative RT-PCR was performed using β-actin as an internal control to normalize gene expression for the PCR templates. The PCR products were analyzed by electrophoresis on a 1.5% agarose gel containing goldview (5 μL/100 mL), and the amplified bands were visualized and photographed using JS-680B Gel Documentation and Analysis System (Shanghai Peiqing Science and Technology Co., Ltd., Shanghai, China). The size of the amplified fragments was determined by comparison with a standard DNA marker.

[4] = no difference among concentrations at 2 h

## COC1C(O)C(CO)OC(OC2C(O)C(CO)OC(OC3C(C)OC(OC4C(OC5CCC6(C)C7=CC(O)C89C(=O)OC(C)(CCCC(C)C)C8(O)CCC9(C)C7CCC6C5(C)C)OCC(OS(=O)(=O)O)C4O)C(O)C3O)C2O)C1O.[Na+] (centres unmarked) [Echinoside A (1), Echinoside A]
[1]; MTT assay, normal hepatocytes, means ± SD (n = 3)
  IC50 (μg/mL) HL-7702: 3.12 ± 0.65 µg/mL
[1]
  Ratio (HL-7702/HepG2): 2.08
[1]; listed as 1
  Ratio (HL-7702/HepG2): more than 2
HepG2 cells
  apoptosis in HepG2 cells (morphology): could induce apoptosis
[2]
  ratio of Bcl-2/Bax mRNA expression: significantly decreased
[3]; [4]
  expression level of Caspase-8 mRNA: significantly up-regulated
  expression level of Caspase-9 mRNA: significantly up-regulated
[3]; time- and dose-dependent
  expression level of Caspase-3 mRNA: markedly up-regulated
